In patent US12351595B2, “Composition comprising O-cyclic phytosphingosine-1-phosphate for preventing or treating Parkinson's disease” (AXCESO BIOPHARMA CO., LTD., priority 2019, dated 2025):

Key:
SH-SY5Y cells = assay: MPP+-treated Parkinson's disease cell model, cell survival (MTT assay); type: cell-based, human
Experimental: To prepare a Parkinson's disease cell model by inducing oxidative stress with MPP^+ (1-methyl-4-phenylpyridinium iodide, Sigma), MPP^+ was dissolved in a phosphate buffer solution, diluted to a final concentration of 3 mM, and added to a nerve cell culture medium. To confirm the efficacy of the cP1P drug in the MPP^+ environment, SH-SY5Y cells were pretreated with cP1P drug at concentrations of 10 nM, 100 nM, and 1000 nM, respectively, for 1 hour, and then exposed to oxidative stress by treatment with 3 mM MPP^+ for 24 hours. The efficacy of the cP1P drug on the survival of SH-SY5Y cells after 24 hours of exposure to oxidative stress was determined by MTT assay.

SH-SY5Y nerve cells = assay: Rotenone-treated Parkinson's disease cell model, necrotic cell death (LDH detection kit); type: cell-based, human
Experimental: Rotenone is a substance widely used in cell models to induce Parkinson's disease. It is well known that when a nerve cell is treated with rotenone, mitochondrial function is destroyed, and oxidative stress is induced to cause death of the nerve cell.
The SH-SY5Y nerve cell culture medium was treated with cP1P drug at concentrations of 100 nM and 1000 nM, respectively, and cultured for 24 hours. Then, rotenone (Sigma) was dissolved in DMSO, diluted to a final concentration of 2 μM, and added to the SH-SY5Y nerve cell culture medium. The SH-SY5Y nerve cells were cultured for an additional 24 hours. SH-SY5Y nerve cells were obtained and cultured in the same manner as in Example 1.
Necrotic cell death was measured for the cultured SH-SY5Y nerve cells using a lactate dehydrogenase (LDH) detection kit (BioVision).
For comparison, the necrotic cell death was also measured for the control group that was treated only with DMSO without cP1P drug and rotenone, and the control group that was treated only with diluted rotenone solution without cP1P drug. In addition, the necrotic cell death was measured for the treatment of the nerve cells with the cP1P drug at concentrations of 100 nM and 1000 nM, respectively.

[1] = test system: Tyrosine hydroxylase (TH); assay: Tyrosine hydroxylase (TH) expression in SH-SY5Y nerve cells (immunohistochemistry and western blot); type: cell-based, human; conditions: 24 hours
Experimental: Tyrosine hydroxylase (TH) is an enzyme that converts amino acid tyrosine into L-DOPA, a precursor of dopamine, and plays an important role in the formation of dopamine in nerve cells.
In order to confirm the efficacy of the cP1P drug on TH expression in SH-SY5Y nerve cells, SH-SY5Y nerve cell culture was treated with the cP1P drug at concentrations of 10 nM and 100 nM, respectively. TH expression was determined by immunohistochemistry and western blot after 24 hours.

[2] = test system: SH-SY5Y human nerve cell line; assay: Proliferation of SH-SY5Y human nerve cells (MTT assay); type: cell-based; conditions: 48 hours
Experimental: The SH-SY5Y human nerve cell line purchased from ATCC was used as a nerve cell line to evaluate the effect of the cP1P drug on the proliferation of dopaminergic human nerve cells. Dulbeco's Modified Eagle's Media/high glucose (with 10% FBS, 0.5% P/S) was used as a medium for culturing nerve cells, and the nerve cells were cultured at 37° C. in 5% CO2 incubator.
In order to observe the effect of cP1P drug on the proliferation of the dopaminergic human nerve cells, SH-SY5Y cells were treated with cP1P drug at concentrations of 10 nM, 100 nM and 1000 nM, respectively, and cultured for 48 hours. MTT assay (Molecular Probes) was performed according to the manufacturer's method to measure the cell proliferation rate.

C[n+]1ccc(-c2ccccc2)cc1.[I-] [MPP^+, 1-methyl-4-phenylpyridinium iodide, reference compound]
nerve cell death (SH-SY5Y cells; MPP+ 3 mM only, 24 hours): the nerve cells were killed

CCCCCCCCCCCCCC[C@@H](O)[C@H]1OP(=O)(O)OC[C@@H]1N [cP1P, O-cyclic phytosphingosine-1-phosphate]
degree of cell death (SH-SY5Y nerve cells; cP1P 100 nM and 1000 nM alone, without rotenone): reduced the degree of cell death compared to the control group treated only with DMSO | nerve cell death (SH-SY5Y nerve cells; cP1P 100 nM and 1000 nM for 24 hours, then rotenone 2 μM for 24 hours): inhibited to the level equivalent to that of DMSO treatment without rotenone | nerve cell death (SH-SY5Y cells; cP1P 100 nM pretreatment 1 hour, then 3 mM MPP+ 24 hours): significantly reduced | nerve cell death (SH-SY5Y cells; cP1P pretreatment (10, 100, 1000 nM) 1 hour, then 3 mM MPP+ 24 hours): significantly reduced | expression of the TH enzyme ([1]; 10 nM): increased | expression of the TH enzyme ([1]; 100 nM): increased | effect on the proliferation of SH-SY5Y cells ([2]; 10 nM): effect on the proliferation of SH-SY5Y cells appeared | effect on the nerve cell proliferation ([2]; 100 nM (of 10, 100, 1000 nM)): highest

C=C(C)[C@H]1Cc2c(ccc3c2O[C@@H]2COc4cc(OC)c(OC)cc4[C@@H]2C3=O)O1 [rotenone, reference compound]
degree of nerve cell death (SH-SY5Y nerve cells; rotenone 2 μM only, 24 hours): exceed 30%
